Reference: BindingDB's records for doi:10.7270/Q2TX3CTT (Broad Institute, 2010)

Target: Glycogen synthase kinase-3 beta (Homo sapiens, UniProt P49841)
Assay: concentration-response blocking of human GSK3B – biochemical, luminescence, cell-free homogeneous, retest, dose response (AID 434954)

Chain of Glycogen synthase kinase-3 beta (P49841 whole entry): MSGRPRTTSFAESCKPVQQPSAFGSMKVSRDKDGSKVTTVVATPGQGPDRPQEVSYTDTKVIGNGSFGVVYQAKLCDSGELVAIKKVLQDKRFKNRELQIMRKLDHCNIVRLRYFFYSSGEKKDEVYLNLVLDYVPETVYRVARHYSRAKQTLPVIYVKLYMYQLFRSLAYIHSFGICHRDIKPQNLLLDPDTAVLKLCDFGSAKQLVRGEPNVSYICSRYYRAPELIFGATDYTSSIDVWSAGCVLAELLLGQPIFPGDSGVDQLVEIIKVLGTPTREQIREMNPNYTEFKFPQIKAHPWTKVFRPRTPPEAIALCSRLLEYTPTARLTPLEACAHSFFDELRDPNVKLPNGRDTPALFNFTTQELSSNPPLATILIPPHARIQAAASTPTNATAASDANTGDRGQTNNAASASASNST

SMILES | EC50 [µM]
Fc1ccccc1CNc1nc(-c2cccnc2)nc2ccccc12 [N-[(2-fluorophenyl)methyl]-2-pyridin-3-ylquinazolin-4-amine] | > 300
O=C(CSc1nnc(CNC(=O)c2c(F)cccc2F)o1)NCc1ccc(F)cc1 | > 300
COc1cccc(C(=O)CSc2nccn2C)c1 [1-(3-Methoxy-phenyl)-2-(1-methyl-1H-imidazol-2-ylsulfanyl)-ethanone] | > 300
CCN1CCN(c2c(C=O)c(Cl)nc3ccc(OC)cc23)CC1 | 5.67
CCN(CC)Cc1c(C(=O)NN=Cc2ccccn2)nnn1-c1nonc1N | 9.91
CCOC(=O)c1c(-c2ccccc2)oc2ccc(OCC(=O)NNC(=O)CCCC(=O)O)cc12 | > 300
CC(=O)N(\C=C/C=C/C=C1\Sc2ccccc2C1=O)c1ccccc1 [N-[(1Z,3E,5Z)-5-(3-oxo-1-benzothien-2(3H)-ylidene)penta-1,3-dienyl]-N-phenylacetamide] | > 300
CN1CCN(CCCNC(=O)Nc2ccc([N+](=O)[O-])cc2)CC1 [N-[3-(4-methylpiperazin-1-yl)propyl]-N'-(4-nitrophenyl)urea] | > 300
Cc1ccnc(NC(=O)CCC(=O)N(CC(=O)NCc2ccccc2)Cc2cccs2)c1 | 16.9
CC1=NC2=C(C(=O)CC(C)(C)C2)C(c2ccc(O)cc2)C1C#N (stereo not given) | > 300
COc1ccc(-c2nc(-c3ccccc3)nc(Cl)c2C#N)cc1 [4-chloranyl-6-(4-methoxyphenyl)-2-phenyl-pyrimidine-5-carbonitrile] | > 300
CCOC(=O)C1(Cc2cccc(F)c2)CCN(Cc2cn(CC)nc2C)CC1 [1-[(1-ethyl-3-methyl-4-pyrazolyl)methyl]-4-[(3-fluorophenyl)methyl]-4-piperidinecarboxylic acid ethyl ester] | > 300
COc1cccc2c1cc1c(=O)n(CC(=O)N3CCC(C)CC3)nc(C)n12 | > 300
COc1ccc(/C=C(/NC(=O)c2ccccc2)C(=O)NN=Cc2ccncc2)c(OC)c1 [N-[(E)-1-(2,4-dimethoxyphenyl)-3-oxo-3-[2-(pyridin-4-ylmethylidene)hydrazinyl]prop-1-en-2-yl]benzamide] | > 300
COc1cccc(/C=C2\Sc3ccc(C(=O)NCC4CCCO4)cc3N(C)C2=O)c1 (stereo not given) [SMR000622267] | > 300
CC(NC(=O)/C=C/c1ccco1)c1nc2ccccc2n1Cc1ccccc1F (stereo not given) | > 300
COc1ccccc1C=NNC(=O)c1nnn(-c2nonc2N)c1CN(C)c1ccccc1 [1-(4-amino-1,2,5-oxadiazol-3-yl)-N-[(2-methoxyphenyl)methylideneamino]-5-[(N-methylanilino)methyl]triazole-4-carboxamide] | 4.14
O=C(COc1ccccc1)N1CCN(S(=O)(=O)c2cccs2)CC1 [1-(phenoxyacetyl)-4-(2-thienylsulfonyl)piperazine] | > 300
COc1ccccc1-c1nc(C(=O)NCC2CCCO2)cc2c1[nH]c1ccccc12 (stereo not given) [1-(2-methoxyphenyl)-N-(oxolan-2-ylmethyl)-9H-pyrido[3,4-b]indole-3-carboxamide] | > 300
NS(=O)(=O)c1ccc(N/N=C2\C(=O)Nc3ccc(Br)cc32)cc1 [SMR000592222] | > 300
Cc1ccc(NS(=O)(=O)c2cccc(C(=O)NN=Cc3c(C)nn(-c4ccccc4)c3N3CCCC3)c2)c(C)c1 [MLS000394744] | > 300
CCOC(=O)c1sc(NC(=O)CSc2nnc(C(C)C)n2C)nc1C [2-[2-(5-Isopropyl-4-methyl-4H-[1,2,4]triazol-3-ylsulfanyl)-acetylamino]-4-methyl-thiazole-5-carboxylic acid ethyl ester] | 26
CC(C)c1ccc(C(=O)NCCCN2CCN(CCCNC(=O)c3ccc(C(C)C)cc3)CC2)cc1 [SMR000272164] | > 300
Cc1cc(NC(=O)CSc2nc(O)c(C#N)c(-c3ccccc3)n2)no1 [2-[(5-cyano-4-oxidanylidene-6-phenyl-1H-pyrimidin-2-yl)sulfanyl]-N-(5-methyl-1,2-oxazol-3-yl)ethanamide] | > 300
COc1ccc(-c2nn(-c3ccccc3)cc2CN=Nc2ccc3ccccc3n2)cc1OC [MLS000388895] | > 300
